Experimental findings from PMC2193175 (The Journal of Experimental Medicine, 2000) are described below.

What is called IC50 is the concentration needed to halve the response being measured.

Each structure is given as a SMILES string. Where two headings read alike, the source gives them in different places.

In experiment [1] the target is T1, cysteine-rich domain of the murine macrophage mannose receptor (Cys-MR) (Mus musculus, UniProt Q61830).
T1 sequence (Q61830 20-154): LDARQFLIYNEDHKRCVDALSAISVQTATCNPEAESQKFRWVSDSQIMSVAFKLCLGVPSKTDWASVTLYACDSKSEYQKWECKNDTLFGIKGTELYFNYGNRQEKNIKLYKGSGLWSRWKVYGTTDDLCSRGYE
Put plainly: microwell inhibition of Cys-MR-Fc binding to immobilized human lutropin.

For experiment [2], the target named is T1, cysteine-rich domain of the murine macrophage mannose receptor (Cys-MR). The experiment is described as above. The source holds these as a separate data set.

For `CC(=O)N[C@H]1C(O)O[C@H](CO)[C@H](OS(=O)(=O)O)[C@@H]1O` (some centres unmarked) [4-sulfated N-acetylgalactosamine], in experiment [1], the IC50 is 180 µM.

Consider `CC(=O)N[C@H]1C(O)O[C@H](COS(=O)(=O)O)[C@H](O)[C@@H]1O` (some centres unmarked) [6-sulfated N-acetylgalactosamine], for which the IC50 in experiment [2] was 1300 µM.
